A melting point compilation (Tetko et al.; mined from patent text by program, amines drawn as free bases though some values may be those of a salt)

Row | Structure (SMILES) | melting point [°C]
1 | C=Cc1c(C(C)C)nc(C(C)C)c(CO)c1-c1ccc(F)cc1 | 119 to 120
2 | Cc1noc(-c2ncn3c2cnc2ccccc23)n1 | 269 to 270
3 | CC1(C)Cc2sc3c(c2C1)CCC3=O | 60 to 62
4 | COc1cc2c3c(cccc3c1)C(=O)N(O)C2=O | 236 to 239
5 | CNc1ccc2cnc(C(=O)c3ccc([N+](=O)[O-])c(C(=O)OC)c3)n2c1 | 183
6 | O=C(O)C1=CSC2C(=Cc3nc4ncc5c(n4n3)CCC3(C5)OCCO3)C(=O)N12 (stereo unspecified) | > 250
7 | O=C(O)C#Cc1ccc(Cl)cc1Cl | 161 to 163
8 | COc1ccc(/C=C\c2ccc(OC)c(OC)c2OC)cc1 | 55 to 57
9 | CCCC12CCC(=O)C=C1c1c(cc(OC)c(Cl)c1Cl)C2Br (stereo unspecified) | 132 to 134
10 | Brc1cn2ccnc2c(N2CCOCC2)n1 | 191
11 | COC(=O)C#Cc1c(C#N)nn(-c2c(Cl)cc(C(F)(F)F)cc2Cl)c1N | 201 to 202
12 | Nc1nc2c(ncn2[C@@H]2C[C@H](O)[C@@H](O)[C@H]2O)c(=O)[nH]1 (racemic) | 295
13 | CCN1C(=O)C(C)(C)C(=O)N(C)c2cc(CN(CCn3ccc4oc(C)cc4c3=O)Cc3n[nH]c4c(C)cccc34)ccc21 | 111 to 118
14 | CCCCCCCCCCCCCCCCCCOCC(COC(c1ccccc1)(c1ccccc1)c1ccccc1)OC(=O)N(C)C (stereo unspecified) | 57.5 to 58
15 | CC(C)(C)OC(=O)N[C@@H](CO)C(=O)N[C@@H](CCC(=O)OCc1ccccc1)C(=O)OCc1ccccc1 | 93 to 95
16 | CCCCCCc1nc(N)n2nc(-c3ccco3)nc2n1 | 131 to 133
17 | CCOC(=O)c1ncn2c(-c3cccnc3)ccnc12 | 184 to 186
18 | CC(CO)C1CCC2C3CCC4=C(N)C(=O)CCC4(C)C3CCC12C (stereo unspecified) | 180 to 185
19 | Clc1cc2c(c(-c3nc4ncccc4o3)c1)CCCC2 | 130 to 132
20 | NC(=O)CNC(=O)C1(N2CCCC2=O)CC1 | 180
21 | O=C1CC(ON(Cc2ccccc2)Cc2ccccc2)C(=O)N1C1CCCCC1 (stereo unspecified) | 75 to 77
22 | O=[N+]([O-])C=C(Cl)SCCCNS(=O)(=O)c1ccccc1 | 105 to 106
23 | CN(C)CCN(C1CCN(C)CC1)S(=O)(=O)c1ccc(Nc2nccc(Nc3ccc(F)cc3)n2)cc1 | 135 to 137
24 | Cn1c([N+](=O)[O-])cnc1C=Cc1cccc(C(N)=O)c1 | 254 to 256
25 | O=C1CCOc2c(O)cccc21 | 93 to 96

Row | Structure (SMILES) | melting point [°C]
26 | O=C(NCCc1cccs1)c1cc(Cl)ccc1Cl | 99 to 100
27 | CC(C)Oc1ccc(Cc2ccc(NC3=NCCN3)cc2)s1 | 134 to 135
28 | Clc1cc(Cl)nc(NC2CCCC2)n1 | 48 to 52
29 | CC1(C)CC(S(=O)C(F)c2c(F)cccc2F)=NO1 (stereo unspecified) | 87
30 | O=C(Nc1csc(-c2cccnc2)n1)c1nnn[nH]1 | 263 to 265
31 | CC(C)(C)OC(=O)N1CCC(C)(c2nc(-c3ccncc3)c(-c3ccc(F)cc3)[nH]2)CC1 | 157 to 160
32 | COC(=O)c1ccc2nc3cc(C)sc3c(=O)n2c1 | 215 to 216
33 | COCOc1cccc(F)c1C=NO | 102 to 104
34 | CC(C)Oc1cccc(CC(=O)N2CCC(CCN3CCC(C(=O)c4nc5ccccc5n4Cc4ccc(F)cc4)CC3)(c3ccc4c(c3)OCO4)C2)c1 (stereo unspecified) | 73 to 76
35 | CCOC(=O)c1cn(-c2ccc(F)c(NC(C)(C)C)n2)c2c(Cl)c(F)c(F)cc2c1=O | 207 to 210
36 | O=[N+]([O-])CS(=O)(=O)c1ccc2c(c1)CCN2 | 139
37 | O=C1CC[C@]2(O)C[C@H]1OC2=O | 144 to 145
38 | CN(c1cccc2cc(C3=NCC(CC(=O)NS(C)(=O)=O)S3)[nH]c12)S(=O)(=O)c1cccs1 (stereo unspecified) | 141
39 | CCCCCCCCCCCC(=O)OC1C(C)C(c2ccccc2)NC(c2ccccc2)C1C (stereo unspecified) | 74 to 76
40 | Cn1c(C(F)(F)F)cc(=O)n(-c2ccc3snc(CP(=O)(O)O)c3c2)c1=O | > 230
41 | CCN(CC1CCN(C(N)=O)CC1)C(C)Cc1ccc(OC)cc1 (stereo unspecified) | 104 to 110
42 | Cc1cccc2nc(-c3c(F)cccc3F)[nH]c12 | 148
43 | C[C@H](C(=O)O)[C@H](O)c1ccccc1 | 89 to 90
44 | CCc1oc(-c2ccc(C(F)(F)F)cc2)cc1CCC(=O)O | 94 to 95
45 | CCOC(=O)c1nn(-c2c(Cl)cc(C(F)(F)F)cc2Cl)cc1OC(F)(F)C(F)Cl (racemic) | 105 to 106
46 | CC(C)(O)C(=O)Nc1ccc(Sc2ccc(NS(C)(=O)=O)cc2)cc1Cl | 138 to 140
47 | Oc1ccc(-c2ccc3cc(O)nc-3o2)cc1 | > 300
48 | COc1ccc2c(c1)C(=O)N(c1ccc3c(cnn3C)c1)C2 | 213 to 214
49 | CCCn1c(COCC)nc2c(N)nc3cc(OCC(=O)N4CCOCC4)ccc3c21 | 213

The remaining lines, values ahead:

Row | melting point [°C] | Structure (SMILES)
50 | 143 to 144 | S=C(NC(=Nc1ccccc1)c1ccccc1)Nc1ccccc1
51 | 86 to 88 | O=C(c1ccccc1)c1ccc(SCC(O)CO)cc1 (stereo unspecified)
52 | 112 to 114 | COc1ccc2c(c1)C(=C1CCN(C)CC1)c1ccccc1C=C2
53 | 173 to 175 | NC(=O)c1ccnc(-c2cccc3cc(Cc4cc(F)cc(Cl)c4)sc23)c1
54 | 182 to 184 | O=C(O)COc1ccc2c(-c3ccccc3F)noc2c1
55 | 85 | CCCCCCCCCCCCc1ccc(C(=O)c2ccccc2C(=O)O)cc1
56 | 135 | CN(C)/N=C(/C(=O)O)c1ccc(OCCOc2ccc3ccccc3c2)cc1
57 | 185 | C[C@@H](Cn1ccc2ccc3ncccc3c21)NC(=O)OC(C)(C)C
58 | 182 to 183 | COC(=O)C(Oc1ccc(Cl)cc1)c1ccc(Oc2ccc(S(C)(=O)=O)cc2)cc1 (stereo unspecified)
59 | 146 to 147 | CN(C(CCN1C(=O)CNC1=O)C(=O)NO)S(=O)(=O)c1ccc(Oc2ccccc2)cc1 (stereo unspecified)
60 | 111 to 112 | COc1ccc(NC(=O)NCCCOc2cccc(CN3CCCCC3)c2)cc1
61 | 169 to 171 | Cc1[nH]c(-c2ccccc2)nc1-c1ccc(Cl)c(Cl)c1
62 | 143 | COC(=O)C(Oc1nc(C)cc(OC)n1)C(OCC(C)(C)C(=O)OC)(c1ccccc1)c1ccccc1 (stereo unspecified)
63 | 113 to 114 | CNCCc1ccc(-c2ccc(OC(C)C(O)CCc3cccnc3)cc2)cc1 (stereo unspecified)
64 | 107 | COc1ccc(CN2C(=O)C(O)(c3cc(CO)ccc3Cl)c3cc(Cl)ccc32)c(OC)c1 (stereo unspecified)
65 | 210 to 212 | O=C(Nc1ccc(F)cc1)c1ccc(C2COC(c3c(F)cccc3F)=N2)cc1 (stereo unspecified)
66 | 174 | CN1Cc2cc(C(c3ccccc3)n3ccnc3)ccc2NC1=O (stereo unspecified)
67 | 133 to 135 | CNC(=O)COC(=O)N1CCN(CCc2ccc3ccccc3c2)CC1
68 | 150 to 160 | Cc1ccc2c(c1)C=Cc1cc(C(C)C)ccc1C2c1cn(Cc2ccc(C(=O)O)o2)c(=O)[nH]c1=O (stereo unspecified)
69 | 235 | CC(CN(C)C)Oc1ccc(/C=C/C(=O)O)cc1 (stereo unspecified)
70 | 219 to 221 | CNc1nc(-c2cccc(NC(=O)c3ccc(OC)cc3)c2)c2cc(OC)c(OC)cc2n1
71 | 86 to 88 | CSc1cc2c(cc1C(F)(F)F)N(C(=O)Nc1ccc(Oc3ccccc3)nc1)CC2
